Laboratory results taken from US20250368647A1, “NITROGEN CONTAINING CONDENSED 2,3-DIHYDROQUINAZOLINONE COMPOUNDS AS NAV1.8 INHIBITORS” (GLAXOSMITHKLINE INTELLECTUAL PROPERTY DEVELOPMENT LIMITED, priority 2022, published 2025).
Where a name gives a salt, the structure may show the parent alone.

Molecular target: human Nav1.8 (Homo sapiens (Human), UniProt Q9Y5Y9)
Assay: QPatch 48 HTX voltage-clamp electrophysiology, half inactivation state (V1/2) protocol, HEK293-Nav1.8 cells
Assay type: cell-based
Details: HEK293 cells expressing human Nav1.8, human Navβ1 and human TREK1, P2 current
Procedure: Human embryonic kidney 293 cells (HEK293) expressing human Nav1.8, human Navβ1 and human TREK1 (HEK293-Nav1.8) were grown in T150 cell culture flasks at 37° C., 5% CO2 incubator. HEK293-Nav1.8 were passaged every 2-3 days when confluency reached 80-90% in T150 cell culture flasks.
Pharmacological assessment of compounds of the invention was performed using the QPatch 48 HTX electrophysiological platform. HEK293-Nav1.8 cells were prepared on the day of use by removing culture media, washing in DPBS, adding Accutase (2 mL to cover the surface, aspirate 1 mL then 1-2 minutes at 37° C.) followed by addition of CHO-SFM II to stop the enzyme digestion and in order to obtain a suspension of 3×10^6 cell/mL.
Compounds of the invention were prepared in an extracellular solution of the following composition: NaCl (145 mM), KCl (4 mM), CaCl2) (2 mM), MgCl (2 mM), HEPES (1 mM), Glucose (10 mM), pH 7.4 with NaOH Osmolality 300 mOsM/L. An intracellular solution of the following composition was used: CsF (115 mM), CsCl (20 mM), NaCl (5 mM), EGTA (10 mM), HEPES (10 mM), Sucrose (20 mM), pH 7.2 with CsOH Osmolality 310 mOsm/L.
Utilizing the voltage-clamp mode in the QPatch 48 HTX system a half inactivation state voltage protocol (V1/2) was used to determine pharmacological activity of compounds of the invention at Nav1.8 ion channels. A V1/2 protocol was utilized with the following voltage steps: a holding voltage of −100 mV was established followed by a 20 ms voltage step to 0 mV (P1), followed by an inactivating voltage step at −46 mV for 8 seconds, followed by a step to −100 mV for 20 ms, before a 20 ms step to 0 mV (P2), then returned to the holding voltage of −100 mV. This voltage protocol was repeated at a frequency of every 15 seconds, the current magnitude was quantified at the P2 step throughout the recording. Inhibition of the measured current amplitude with compounds of the invention was analyzed by fitting a 4-6 points dose-response curve allowing determination of the fifty percent inhibition concentration (IC50). P2 currents were normalized according to measurements made at baseline (Baseline, vehicle only), after compound (Input, at each test concentration), and after positive reference compound (FullResponse, to achieve complete block), fit to the following equation: […]
To assess current run-down over the course of the experiment vehicle-only wells were utilized and the normalized current with vehicle-only (n.IVEH) was determined. To correct the compound response for run-down, the currents were corrected according to the following formula: […]
Compound inhibition was fitted to the following Hill Equation to estimate the half maximal inhibition concentration (IC50)
[formula] • where Y is the normalized run-down corrected inhibition relative to the vehicle control (equivalent to n.IRD_Correct), C the test compound concentration, IC50 the concentration of test compound to inhibit the sodium current by 50%, and h the Hill coefficient.

Chain of human Nav1.8 (Q9Y5Y9 whole entry): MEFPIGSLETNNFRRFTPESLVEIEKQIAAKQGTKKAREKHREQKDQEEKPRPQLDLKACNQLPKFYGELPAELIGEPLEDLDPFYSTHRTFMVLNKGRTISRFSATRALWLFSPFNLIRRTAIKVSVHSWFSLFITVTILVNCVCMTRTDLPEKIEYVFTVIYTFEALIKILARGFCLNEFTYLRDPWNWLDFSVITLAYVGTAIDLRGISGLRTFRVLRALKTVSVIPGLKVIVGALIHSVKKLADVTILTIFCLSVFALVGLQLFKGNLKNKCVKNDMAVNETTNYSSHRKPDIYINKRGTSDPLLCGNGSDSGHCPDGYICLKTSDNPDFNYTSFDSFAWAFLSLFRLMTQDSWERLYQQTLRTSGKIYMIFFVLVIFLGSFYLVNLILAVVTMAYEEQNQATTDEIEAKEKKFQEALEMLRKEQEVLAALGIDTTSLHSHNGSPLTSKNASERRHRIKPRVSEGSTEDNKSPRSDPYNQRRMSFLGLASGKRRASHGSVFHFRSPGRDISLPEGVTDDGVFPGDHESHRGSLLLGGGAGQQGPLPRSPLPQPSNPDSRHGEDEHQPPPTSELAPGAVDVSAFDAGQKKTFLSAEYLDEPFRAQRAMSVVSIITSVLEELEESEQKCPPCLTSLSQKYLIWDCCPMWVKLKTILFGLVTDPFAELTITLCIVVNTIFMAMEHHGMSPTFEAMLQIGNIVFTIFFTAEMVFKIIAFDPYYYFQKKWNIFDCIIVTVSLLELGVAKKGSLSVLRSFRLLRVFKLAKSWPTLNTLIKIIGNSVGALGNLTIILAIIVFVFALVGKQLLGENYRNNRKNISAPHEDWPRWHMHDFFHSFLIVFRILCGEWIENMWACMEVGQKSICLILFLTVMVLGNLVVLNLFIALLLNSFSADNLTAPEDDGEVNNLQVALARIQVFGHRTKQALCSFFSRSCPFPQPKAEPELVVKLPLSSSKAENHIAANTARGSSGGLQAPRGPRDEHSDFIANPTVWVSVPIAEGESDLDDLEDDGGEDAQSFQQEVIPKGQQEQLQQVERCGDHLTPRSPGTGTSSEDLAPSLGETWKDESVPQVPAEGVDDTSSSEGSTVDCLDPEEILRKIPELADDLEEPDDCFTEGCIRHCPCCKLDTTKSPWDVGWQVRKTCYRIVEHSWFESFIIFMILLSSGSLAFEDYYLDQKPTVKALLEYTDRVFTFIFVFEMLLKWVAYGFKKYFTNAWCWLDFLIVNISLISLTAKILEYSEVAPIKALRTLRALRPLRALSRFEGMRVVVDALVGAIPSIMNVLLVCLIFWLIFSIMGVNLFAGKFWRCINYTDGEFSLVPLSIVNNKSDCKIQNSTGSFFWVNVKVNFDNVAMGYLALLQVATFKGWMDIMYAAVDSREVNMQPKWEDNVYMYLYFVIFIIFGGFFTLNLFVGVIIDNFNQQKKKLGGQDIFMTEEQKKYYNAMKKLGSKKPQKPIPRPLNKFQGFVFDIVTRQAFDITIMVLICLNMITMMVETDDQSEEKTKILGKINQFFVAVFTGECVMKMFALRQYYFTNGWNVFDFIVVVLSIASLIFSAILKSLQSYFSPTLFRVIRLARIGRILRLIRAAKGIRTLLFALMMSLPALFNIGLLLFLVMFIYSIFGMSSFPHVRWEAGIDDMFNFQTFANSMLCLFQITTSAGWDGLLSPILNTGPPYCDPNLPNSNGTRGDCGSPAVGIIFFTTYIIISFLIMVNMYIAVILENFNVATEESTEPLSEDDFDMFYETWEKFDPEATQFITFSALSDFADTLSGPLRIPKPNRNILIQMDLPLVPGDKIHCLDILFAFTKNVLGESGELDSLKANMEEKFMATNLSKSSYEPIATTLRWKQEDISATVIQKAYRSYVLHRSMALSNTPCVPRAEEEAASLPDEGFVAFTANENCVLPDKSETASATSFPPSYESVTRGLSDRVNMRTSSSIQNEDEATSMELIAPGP
Chain of human Nav1.8 (Q07699 19-218 partner): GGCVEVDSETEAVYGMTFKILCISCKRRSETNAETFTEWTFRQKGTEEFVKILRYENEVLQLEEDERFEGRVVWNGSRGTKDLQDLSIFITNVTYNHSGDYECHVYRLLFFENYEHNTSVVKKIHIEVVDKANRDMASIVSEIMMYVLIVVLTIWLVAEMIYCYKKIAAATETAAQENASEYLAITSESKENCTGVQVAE

Row | SMILES | Nav1.8, pIC50
1 | CC1NCCc2[nH]c(=O)ccc2N2CN(c3ccc(C(F)(F)F)cc3C2=O)c2ccc(F)cc21 (racemic) [Example 114, 8-Fluoro-10-methyl-2-(trifluoromethyl)-10,11,12,13-tetrahydro-19H-5,18-methanodibenzo[c,f]-pyrido[3,2-j][1,5,9]triazacyclotridecine-15,19(14H)-dione hydrochloride] | 6.8
2 | CC1NCCc2[nH]c(=O)ccc2N2CN(c3cc(C(F)(F)F)c(F)cc3C2=O)c2ccc(F)cc21 (racemic) [Example 117, 2,8-Difluoro-10-methyl-3-(trifluoromethyl)-10,11,12,13-tetrahydro-19H-5,18-methanodibenzo-[c,f]pyrido[3,2-j][1,5,9]triazacyclotridecine-15,19(14H)-dione hydrochloride] | 7.3
3 | CC1NCCc2[nH]c(=O)ccc2N2CN(c3cc(Cl)c(F)cc3C2=O)c2ccc(F)cc21 (racemic) [Example 120, 3-Chloro-2,8-difluoro-10-methyl-10,11,12,13-tetrahydro-19H-5,18-methanodibenzo[c,f]pyrido-[3,2-j][1,5,9]triazacyclotridecine-15,19(14H)-dione hydrochloride] | 7
4 | CC1Cc2[nH]c(=O)ccc2N2CN(c3ccc(F)cc3CN1)c1cc(C(F)(F)F)c(F)cc1C2=O (racemic) [Example 123, 2,8-Difluoro-12-methyl-3-(trifluoromethyl)-10,11,12,13-tetrahydro-19H-5,18-methanodibenzo-[c,f]pyrido[3,2-j][1,5,9]triazacyclotridecine-15,19(14H)-dione hydrochloride] | 6.1
5 | O=C1c2cc(C(F)(F)F)ccc2N2CN1c1ccc(=O)[nH]c1/C=C/Cc1cc(F)ccc12 [Example 1, (E)-8-Fluoro-2-(trifluoromethyl)-13-hydro-10H, 18H,-5,17-methanodibenzo[b,k]pyrido[3,2-f][1,5]diazacyclododecine-14,18-dione] | 5.1
6 | O=C1c2cc(C(F)(F)F)ccc2N2CN1c1ccc(=O)[nH]c1CCCc1cc(F)ccc12 [Example 2, 14-Fluoro-8-(trifluoromethyl)-17,18-dihydro-1H,6H-5,11-methanodibenzo[b,k]pyridino[3,2-f][1,5]diazacyclododecine-2,6(16H)-dione] | 6.0
7 | O=C1c2cc(C(F)(F)F)ccc2N2CN1c1ccc(=O)[nH]c1C/C=C\Cc1cc(F)ccc12 [Example 3, 8-Fluoro-2-(trifluoromethyl)-10,13-dihydro-19H-5,18-methanodibenzo[b,l]pyrido[3,2-f][1,5]diazacyclotridecine-15,19(14H)-dione] | 6.4
8 | O=C1c2cc(C(F)(F)F)ccc2N2CN1c1ccc(=O)[nH]c1CCCCc1cc(F)ccc12 [Example 4, 8-Fluoro-2-(trifluoromethyl)-10,11,12,13-tetrahydro-19H-5,18-methanodibenzo[b,l]pyridino[3,2-f][1,5]diazacyclotridecine-15,19(14H)-dione] | 6.8
9 | O=C1c2ccc(C(F)(F)F)cc2N2CN1c1ccc(=O)[nH]c1C/C=C\Cc1cc(F)ccc12 [Example 5, 8-Fluoro-3-(trifluoromethyl)-10,13-dihydro-19H-5,18-methanodibenzo[b,l]pyrido[3,2f][1,5]diazacyclo tridecin-15,19(14H)-dione] | 6.3
10 | O=C1c2ccc(C(F)(F)F)cc2N2CN1c1ccc(=O)[nH]c1CCCCc1cc(F)ccc12 [Example 6, 8-fluoro-3-(trifluoromethyl)-10,11,12,13-tetrahydro-19H-5,18-methanodibenzo[b,l]pyridino[3,2-f][1,5]diazacyclotridecine-15,19(14H)-dione] | 7.1
11 | O=C1c2cc(C(F)(F)F)ccc2N2CN1c1ccc(=O)[nH]c1CCCCCc1cc(F)ccc12 [Example 7, 3^4-Fluoro-2^6-(trifluoromethyl)-1^1,1^2,2^1,2^2,2^3,2^4-hexahydro-2(3,1)-quinazolina-1(5,6)-pyridina-3(1,2)-benzenacyclooctaphane-1^2,2^4-dione] | 8.1
12 | O=C1c2ccc(C(F)(F)F)cc2N2CN1c1ccc(=O)[nH]c1CCCCCc1cc(F)ccc12 [Example 8, 3^4-Fluoro-2^7-(trifluoromethyl)-1^1,1^2,2^1,2^2,2^3,2^4-hexahydro-2(3,1)-quinazolina-1(5,6)-pyridina-3(1,2)-benzenacyclooctaphane-1^2,2^4-dione] | 8.4
13 | O=C1c2cnc(C(F)(F)F)cc2N2CN1c1ccc(=O)[nH]c1CCCCCc1cc(F)ccc12 [Example 9, 3^4-Fluoro-2^7-(trifluoromethyl)-1^1,1^2,2^1,2^2,2^3,2^4-hexahydro-2(3,1)-pyrido[4,3-d]pyrimidina-1(5,6)-pyridina-3(1,2)-benzenacyclooctaphane-1^2,2^4-dione] | 7.3
14 | O=C1c2cc(C(F)(F)F)ccc2N2CN1c1ccc(=O)[nH]c1CCCCCCc1cc(F)ccc12 [Example 10, 3^4-Fluoro-2^6-(trifluoromethyl)-1^1,1^2,2^1,2^2,2^3,2^4-hexahydro-2(3,1)-quinazolina-1(5,6)-pyridina-3(1,2)-benzenacyclononaphane-1^2,2^4-dione] | 6.5
15 | O=C1c2cc(C(F)(F)F)ccc2N2CN1c1ccc(=O)[nH]c1NCCCCc1cc(F)ccc12 [Example 11, 3^4-Fluoro-2^6-(trifluoromethyl)-1^1,1^2,2^1,2^2,2^3,2^4-hexahydro-8-aza-2(3,1)-quinazolina-1(5,6)-pyridina-3(1,2)-benzenacyclooctaphane-1^2,2^4-dione] | 7.3
16 | O=C1c2ccc(C(F)(F)F)cc2N2CN1c1ccc(=O)[nH]c1NCCCCc1cc(F)ccc12 [Example 12, 3^4-Fluoro-2^7-(trifluoromethyl)-1^1,1^2,2^1,2^2,2^3,2^4-hexahydro-8-aza-2(3,1)-quinazolina-1(5,6)-pyridina-3(1,2)-benzenacyclooctaphane-1^2,2^4-dione] | 7.6
17 | CN1CCCCc2cc(F)ccc2N2CN(C(=O)c3ccc(C(F)(F)F)cc32)c2ccc(=O)[nH]c21 [Example 13, 3^4-Fluoro-8-methyl-2^7-(trifluoromethyl)-1^1,1^2,2^1,2^2,2^3,2^4-hexahydro-8-aza-2(3,1)-quinazolina-1(5,6)-pyridina-3(1,2)-benzenacyclooctaphan-1^2,2^4-dione] | 7.3
18 | CN1CCCCc2cc(F)ccc2N2CN(C(=O)c3ccc(C(F)(F)F)cc32)c2cc(I)c(=O)[nH]c21 [Example 14, 3^4-Fluoro-1^3-iodo-8-methyl-2^7-(trifluoromethyl)-1^1, 1^2,2^1,2^2,2^3,2^4-hexahydro-8-aza-2(3,1)-quinazolina-1(5,6)-pyridina-3(1,2)-benzenacyclooctaphan-1^2,2^4-dione] | 6.9
19 | O=C1c2cc(C(F)(F)F)ccc2N2CN1c1ccc(=O)[nH]c1NCCOc1cc(F)ccc12 [Example 15, 8-Fluoro-2-(trifluoromethyl)-12,13-dihydro-11H,19H-5,18-methanodibenzo[i,j]pyrido[2,3-e][1]oxa[4,7,11]triazacyclotridecine-15,19(14H)-dione] | 5.7

Same assay, conditions: HEK293 cells expressing human Nav1.8, human Navβ1 and human TREK1, P2 current, read-out: Nav1.8, pIC50 (converted)

Row | SMILES | IC50
20 | CC1Cc2[nH]c(=O)ccc2N2CN(c3ccc(F)cc3CN1)c1cc(C(F)(F)F)c(F)cc1C2=O (single isomer, unassigned; isomer 1) [Example 124, 2,8-difluoro-12-methyl-3-(trifluoromethyl)-10,11,12,13-tetrahydro-19H-5,18-methanodibenzo[c,f]pyrido[3,2-j][1,5,9]triazacyclotridecine-15,19(14H)-dione, Isomer 1] | 1580 nM
21 | CC1Cc2[nH]c(=O)ccc2N2CN(c3ccc(F)cc3CN1)c1cc(C(F)(F)F)c(F)cc1C2=O (single isomer, unassigned; isomer 2) [Example 125, 2,8-difluoro-12-methyl-3-(trifluoromethyl)-10,11,12,13-tetrahydro-19H-5,18-methanodibenzo[c,f]pyrido[3,2-j][1,5,9]triazacyclotridecine-15,19(14H)-dione, Isomer 2] | 631 nM
